What was measured:
RibF^Cg = biological target: T1, RibF^Cg (Corynebacterium glutamicum, UniProt Q8NP47); assay: fluorescent ADP detection kinase assay, crude extract; format: biochemical; conditions: ATP co-substrate; crude extract of overexpressing C. glutamicum; 10 min
T1 construct: gene Cgl1978; overexpressed from pVWEx1 in C. glutamicum wild type; crude extract
T1 sequence (Q8NP47 1-341): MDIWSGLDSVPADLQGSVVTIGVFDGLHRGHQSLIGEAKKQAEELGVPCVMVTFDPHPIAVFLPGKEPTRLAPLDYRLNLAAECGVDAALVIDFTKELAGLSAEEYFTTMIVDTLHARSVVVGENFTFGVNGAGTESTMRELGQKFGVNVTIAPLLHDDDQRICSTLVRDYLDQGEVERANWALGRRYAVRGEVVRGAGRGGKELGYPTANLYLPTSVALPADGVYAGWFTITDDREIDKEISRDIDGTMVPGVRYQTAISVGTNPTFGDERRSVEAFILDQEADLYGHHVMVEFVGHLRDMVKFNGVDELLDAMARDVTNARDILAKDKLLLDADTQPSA

RibF^Sda = biological target: T2, RibF^Sda (Streptomyces davaonensis, UniProt K4R340); assay: as above; format: biochemical; conditions: ATP co-substrate; crude extract of overexpressing C. glutamicum with native RibF background; 10 min
T2 construct: gene ribC1; overexpressed from pVWEx1 in C. glutamicum wild type; crude extract (host's native RibF also present)
T2 sequence (K4R340 1-319): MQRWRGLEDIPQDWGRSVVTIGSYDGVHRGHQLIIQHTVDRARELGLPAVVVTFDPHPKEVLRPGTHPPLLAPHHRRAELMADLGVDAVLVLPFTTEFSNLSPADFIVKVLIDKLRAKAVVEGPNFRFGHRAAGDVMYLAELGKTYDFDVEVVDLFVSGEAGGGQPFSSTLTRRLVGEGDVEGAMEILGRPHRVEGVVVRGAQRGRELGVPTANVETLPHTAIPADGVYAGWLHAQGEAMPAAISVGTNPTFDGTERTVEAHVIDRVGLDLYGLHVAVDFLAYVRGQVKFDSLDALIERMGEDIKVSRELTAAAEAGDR

Row | Structure (SMILES) | fluorescent ADP detection kinase assay, crude extract (RibF^Cg) | fluorescent ADP detection kinase assay, crude extract (RibF^Sda)
1 | Cc1cc2nc3c(=O)[nH]c(=O)nc-3n(C[C@H](O)[C@H](O)[C@H](O)CO)c2cc1C [riboflavin] | overexpression of both ribF genes resulted in kinase activity when RF or RoF was added | RibF^Sda also showed lower kinase activity in the presence of RF
2 | Cc1cc2nc3c(=O)[nH]c(=O)nc-3n(C[C@H](O)[C@H](O)[C@H](O)CO)c2cc1N(C)C [roseoflavin] | overexpression of both ribF genes resulted in kinase activity when RF or RoF was added | activity of RibF^Sda was significantly lower in the presence of RoF

Source: paper PMC12541554, “Production of the Antimicrobial Roseoflavin With Genetically Engineered Corynebacterium glutamicum” (Microbial Biotechnology, 2025)
